We go through 18 molecules from patent US7378375B1, “Substituted pyridine herbicides” (Syngenta Crop Protection, Inc., priority 2000, dated 2008).

The assay relates to Monocotyledonous and dicotyledonous test plants. Put plainly: Post-emergence herbicidal action, greenhouse pot test, sprayed at the 2- to 3-leaf stage, 9-level rating after 2 to 3 weeks. Type of assay: in vivo. Also noted: key: 9-level scale: 1 = complete damage, 9 = no effect. To be noted: 250 g/ha, rated after 2 to 3 weeks, 9-level scale. On the procedure:
Post-Emergence Herbicidal Action
Monocotyledonous and dicotyledonous test plants are grown in standard soil in pots. At the 2- to 3-leaf stage of the test plants, the test substances are sprayed at optimum dosage (500 l of water/ha) as an aqueous suspension (prepared from a wettable powder (example F3, b) according to WO 97/34485) or emulsion (prepared from an emulsion concentrate (example F1, c) according to WO 97/34485). The test plants are then grown further under optimum conditions in a greenhouse.
After a test period of 2 to 3 weeks, the test is evaluated using a 9-level scale of rating (1=complete damage, 9=no effect). Ratings of 1 to 4 (in particular 1 to 3) mean good to very good herbicidal action.

With `CN(Cc1nc(C(F)(F)F)ccc1C(=O)c1cnn(C)c1O)S(C)(=O)=O` [A864-C5], the “Post-emergence action rating, Abutilon” value came out at 2; the “Post-emergence action rating, Amaranth” value amounted to 1; the “Post-emergence action rating, Chenop.” value was 1; the “Post-emergence action rating, Digitaria” value came out at 2. In addition, the “Post-emergence action rating, Echino.” value is reported as 2; the “Post-emergence action rating, Ipopur.” value came to 2; the “Post-emergence action rating, Panicum” value is 1; the “Post-emergence action rating, Xanth.” value turned out to be 2.
For `CS(=O)(=O)OCCOCc1nc(C(F)(F)F)ccc1C(=O)C1=C(O)C2CCC(C2)C1=O` (stereo not drawn) [A862-B52], the “Post-emergence action rating, Abutilon” value stood at 3; the “Post-emergence action rating, Amaranth” value was 2; the “Post-emergence action rating, Chenop.” value came out at 1; the “Post-emergence action rating, Digitaria” value is 2. Also, the “Post-emergence action rating, Echino.” value is 3; the “Post-emergence action rating, Ipopur.” value was 5; the “Post-emergence action rating, Panicum” value amounted to 2; the “Post-emergence action rating, Xanth.” value stood at 2.
With `CSc1nnc(SCc2nc(C(F)(F)F)ccc2C(=O)C2=C(O)CCCC2=O)s1` [A829-B1], the “Post-emergence action rating, Abutilon” value stood at 7; the “Post-emergence action rating, Amaranth” value was 2; the “Post-emergence action rating, Chenop.” value was found to be 2; the “Post-emergence action rating, Digitaria” value was found to be 9. Also, the “Post-emergence action rating, Echino.” value is recorded as 7; the “Post-emergence action rating, Ipopur.” value is 6; the “Post-emergence action rating, Panicum” value is reported as 7; the “Post-emergence action rating, Xanth.” value came out at 4.
In the case of `CSCCOCc1nc(C(F)(F)F)ccc1C(=O)C1=C(O)C2CCC(C2)C1=O` (stereo not drawn) [A817-B52], the “Post-emergence action rating, Abutilon” value was 2; the “Post-emergence action rating, Amaranth” value turned out to be 2; the “Post-emergence action rating, Chenop.” value is 1; the “Post-emergence action rating, Digitaria” value is recorded as 2. For the same molecule, the “Post-emergence action rating, Echino.” value was found to be 2; the “Post-emergence action rating, Ipopur.” value was found to be 2; the “Post-emergence action rating, Panicum” value turned out to be 1; the “Post-emergence action rating, Xanth.” value was determined as 2.
`O=C(C1=C(O)C2CCC(C2)C1=O)c1ccc(C(F)(F)F)nc1COCCOCc1ccccc1` (stereo not drawn) [A855-B52]: the “Post-emergence action rating, Abutilon” value is reported as 2; the “Post-emergence action rating, Amaranth” value is on record as 2; the “Post-emergence action rating, Chenop.” value worked out at 1; the “Post-emergence action rating, Digitaria” value is on record as 2. The “Post-emergence action rating, Echino.” value was 2; the “Post-emergence action rating, Ipopur.” value came to 2; the “Post-emergence action rating, Panicum” value came to 2; the “Post-emergence action rating, Xanth.” value is 2.
For `COc1ccccc1OCc1nc(C(F)(F)F)ccc1C(=O)C1=C(O)C2CCC(C2)C1=O` (stereo not drawn) [A33-B52], the “Post-emergence action rating, Abutilon” value amounted to 2; the “Post-emergence action rating, Amaranth” value is given as 2; the “Post-emergence action rating, Chenop.” value worked out at 1; the “Post-emergence action rating, Digitaria” value came to 2. In addition, the “Post-emergence action rating, Echino.” value stood at 2; the “Post-emergence action rating, Ipopur.” value came out at 2; the “Post-emergence action rating, Panicum” value was found to be 2; the “Post-emergence action rating, Xanth.” value is 3.
On to `CN(Cc1nc(C(F)(F)F)ccc1C(=O)C1=C(O)C2CCC(C2)C1=O)S(C)(=O)=O` (stereo not drawn) [A864-B52], for which the “Post-emergence action rating, Abutilon” value is on record as 2; the “Post-emergence action rating, Amaranth” value worked out at 2; the “Post-emergence action rating, Chenop.” value was found to be 1; the “Post-emergence action rating, Digitaria” value turned out to be 2. Also, the “Post-emergence action rating, Echino.” value is recorded as 2; the “Post-emergence action rating, Ipopur.” value came to 2; the “Post-emergence action rating, Panicum” value is on record as 2; the “Post-emergence action rating, Xanth.” value was 2.
With `CSc1nnc(SCc2nc(C(F)(F)F)ccc2C(=O)C2=C(O)C3CCC(C3)C2=O)s1` (stereo not drawn) [A829-B52], the “Post-emergence action rating, Abutilon” value was 3; the “Post-emergence action rating, Amaranth” value came out at 2; the “Post-emergence action rating, Chenop.” value was determined as 2; the “Post-emergence action rating, Digitaria” value was 6. For the same molecule, the “Post-emergence action rating, Echino.” value turned out to be 4; the “Post-emergence action rating, Ipopur.” value worked out at 4; the “Post-emergence action rating, Panicum” value is on record as 2; the “Post-emergence action rating, Xanth.” value turned out to be 6.
As for `CCOC(C)OCCOCc1nc(C(F)(F)F)ccc1C(=O)C1=C(O)C2CCC(C2)C1=O` (stereo not drawn) [A859-B52], the “Post-emergence action rating, Abutilon” value is given as 2; the “Post-emergence action rating, Amaranth” value was 2; the “Post-emergence action rating, Chenop.” value is recorded as 1; the “Post-emergence action rating, Digitaria” value came out at 2. Also, the “Post-emergence action rating, Echino.” value stood at 2; the “Post-emergence action rating, Ipopur.” value came to 2; the “Post-emergence action rating, Panicum” value is 1; the “Post-emergence action rating, Xanth.” value is recorded as 2.
Turning to `CC(C)(C)C(=O)OC1=C(C(=O)c2ccc(C(F)(F)F)nc2COCCO)C(=O)C2CCC1C2` (stereo not drawn) [A856-B112], the “Post-emergence action rating, Abutilon” value is 2; the “Post-emergence action rating, Amaranth” value stood at 3; the “Post-emergence action rating, Chenop.” value came to 1; the “Post-emergence action rating, Digitaria” value was 3. Further, the “Post-emergence action rating, Echino.” value stood at 5; the “Post-emergence action rating, Ipopur.” value is on record as 3; the “Post-emergence action rating, Panicum” value was determined as 3; the “Post-emergence action rating, Xanth.” value amounted to 3.
In the case of `O=C(C1=C(O)C2CCC(C2)C1=O)c1ccc(C(F)(F)F)nc1COCCO` (stereo not drawn) [A856-B52], the “Post-emergence action rating, Abutilon” value came out at 2; the “Post-emergence action rating, Amaranth” value was 2; the “Post-emergence action rating, Chenop.” value is 1; the “Post-emergence action rating, Digitaria” value is 2. Also, the “Post-emergence action rating, Echino.” value is given as 2; the “Post-emergence action rating, Ipopur.” value was 1; the “Post-emergence action rating, Panicum” value was 2; the “Post-emergence action rating, Xanth.” value amounted to 2.
For `CCCCCCCC(=O)OCCOCc1nc(C(F)(F)F)ccc1C(=O)C1=C(O)C2CCC(C2)C1=O` (stereo not drawn) [A860-B52], the “Post-emergence action rating, Abutilon” value is 2; the “Post-emergence action rating, Amaranth” value came out at 2; the “Post-emergence action rating, Chenop.” value came out at 1; the “Post-emergence action rating, Digitaria” value is reported as 1. Moreover, the “Post-emergence action rating, Echino.” value was determined as 2; the “Post-emergence action rating, Ipopur.” value worked out at 2; the “Post-emergence action rating, Panicum” value was 2; the “Post-emergence action rating, Xanth.” value was determined as 2.
`O=C(C1=C(O)C2CCC(C2)C1=O)c1ccc(C(F)(F)F)nc1COCCCOCc1ccccc1` (stereo not drawn) [A863-B52]: the “Post-emergence action rating, Abutilon” value was found to be 2; the “Post-emergence action rating, Amaranth” value amounted to 2; the “Post-emergence action rating, Chenop.” value turned out to be 1; the “Post-emergence action rating, Digitaria” value is given as 2. The “Post-emergence action rating, Echino.” value is 3; the “Post-emergence action rating, Ipopur.” value came out at 3; the “Post-emergence action rating, Panicum” value is 2; the “Post-emergence action rating, Xanth.” value was 2.
Turning to `COCCOCCOCCOCc1nc(C(F)(F)F)ccc1C(=O)C1=C(O)C2CCC(C2)C1=O` (stereo not drawn) [A858-B52], the “Post-emergence action rating, Abutilon” value is on record as 2; the “Post-emergence action rating, Amaranth” value is listed as 1; the “Post-emergence action rating, Chenop.” value is given as 2; the “Post-emergence action rating, Digitaria” value is reported as 2. The “Post-emergence action rating, Echino.” value is 2; the “Post-emergence action rating, Ipopur.” value was found to be 2; the “Post-emergence action rating, Panicum” value is reported as 2; the “Post-emergence action rating, Xanth.” value is reported as 2.
For the molecule `C[S+]([O-])CCOCc1nc(C(F)(F)F)ccc1C(=O)C1=C(O)C2CCC(C2)C1=O` (stereo not drawn) [A818-B52], the “Post-emergence action rating, Abutilon” value turned out to be 2; the “Post-emergence action rating, Amaranth” value is 2; the “Post-emergence action rating, Chenop.” value stood at 1; the “Post-emergence action rating, Digitaria” value is recorded as 2. In addition, the “Post-emergence action rating, Echino.” value is recorded as 3; the “Post-emergence action rating, Ipopur.” value is 2; the “Post-emergence action rating, Panicum” value is listed as 2; the “Post-emergence action rating, Xanth.” value was determined as 2.
Consider `O=C(C1=C(O)C2CCC(C2)C1=O)c1ccc(C(F)(F)F)nc1COCc1cccs1` (stereo not drawn) [A854-B52], for which the “Post-emergence action rating, Abutilon” value is listed as 2; the “Post-emergence action rating, Amaranth” value is listed as 1; the “Post-emergence action rating, Chenop.” value was found to be 1; the “Post-emergence action rating, Digitaria” value amounted to 2. The “Post-emergence action rating, Echino.” value was 2; the “Post-emergence action rating, Ipopur.” value amounted to 2; the “Post-emergence action rating, Panicum” value amounted to 1; the “Post-emergence action rating, Xanth.” value was determined as 2.
Turning to `O=C(C1=C(O)C2CCC(C2)C1=O)c1ccc(C(F)(F)F)nc1COCCOCOCc1ccccc1` (stereo not drawn) [A857-B52], the “Post-emergence action rating, Abutilon” value is given as 2; the “Post-emergence action rating, Amaranth” value turned out to be 2; the “Post-emergence action rating, Chenop.” value is 1; the “Post-emergence action rating, Digitaria” value stood at 2. Also, the “Post-emergence action rating, Echino.” value is reported as 2; the “Post-emergence action rating, Ipopur.” value is 2; the “Post-emergence action rating, Panicum” value came out at 2; the “Post-emergence action rating, Xanth.” value is 2.
For the molecule `CC(=O)OCCOCc1nc(C(F)(F)F)ccc1C(=O)C1=C(O)C2CCC(C2)C1=O` (stereo not drawn) [A861-B52], the “Post-emergence action rating, Abutilon” value turned out to be 3; the “Post-emergence action rating, Amaranth” value turned out to be 2; the “Post-emergence action rating, Chenop.” value stood at 1; the “Post-emergence action rating, Digitaria” value is reported as 3. Moreover, the “Post-emergence action rating, Echino.” value stood at 5; the “Post-emergence action rating, Ipopur.” value turned out to be 2; the “Post-emergence action rating, Panicum” value was 2; the “Post-emergence action rating, Xanth.” value was determined as 2.
